Assay results from patent publication US9296734B2 (AMGEN INC., priority 2013, dated 2016).

These compounds were tested against Cathepsin D (Cat D) (Homo sapiens (Human), UniProt P07339) (assay: In vitro enzymatic Cathepsin D (Cat D) FRET assay). Conditions: average IC50, cathepsin D enzyme assay; read-out: CatD IC50.
Format: biochemical
Method: In Vitro Enzymatic Cathepsin D (Cat D) FRET (Fluorescence Resonance Energy Transfer) Assay
Recombinant Cat D was expressed in CHO cells. The assay buffer for CathepsinD is 0.05 M citrate pH 3.5, 10% DMSO final, 5 mM CHAPS. […] The assays are effectively started by the addition of different FRET substrates (20 nM for Cat D) and the combination is incubated for one hour. The FRET assay is terminated with by addition of Tris buffer, which raises the pH to neutrality, and the fluorescence is determined. The FRET substrate is a peptide with commercially available fluorophore and quencher, on opposite sides of the BACE cleavage site. […] Proteolytic cleavage of the FRET substrate releases quenching of fluorescence (Cat D excitation 500 nm and emission 580 nm).
In addition, the cathepsin D and cathepsin E assays are described in PCT publication WO2011069934.

Cathepsin D (Cat D), sequence (P07339 65-412, species assumed): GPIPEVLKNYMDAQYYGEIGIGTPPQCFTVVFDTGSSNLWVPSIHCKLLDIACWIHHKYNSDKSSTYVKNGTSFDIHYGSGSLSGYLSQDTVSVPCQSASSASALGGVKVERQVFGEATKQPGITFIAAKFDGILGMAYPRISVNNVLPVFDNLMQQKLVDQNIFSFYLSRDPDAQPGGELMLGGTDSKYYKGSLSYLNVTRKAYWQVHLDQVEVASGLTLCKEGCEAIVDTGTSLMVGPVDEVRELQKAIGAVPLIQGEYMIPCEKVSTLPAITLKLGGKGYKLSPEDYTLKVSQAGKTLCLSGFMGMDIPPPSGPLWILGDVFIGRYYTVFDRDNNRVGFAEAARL

Row | SMILES | IC50 [µM]
1 | COc1ccc(C(=O)Nc2cnc(F)c([C@]3(C)C[C@@H](C(F)(F)F)OC(N)=N3)c2)nc1 [Example 63, N-(5-((4S,6S)-2-amino-4-methyl-6-(trifluoromethyl)-5,6-dihydro-4H-1,3-oxazin-4-yl)-6-fluoropyridin-3-yl)-5-methoxypicolinamide] | > 400
2 | COc1cnc(C(=O)Nc2cnc(F)c([C@]3(C)C[C@@H](C(F)(F)F)OC(N)=N3)c2)cn1 [Example 70, N-(5-((4S,6S)-2-amino-4-methyl-6-(trifluoromethyl)-5,6-dihydro-4H-1,3-oxazin-4-yl)-6-fluoropyridin-3-yl)-5-methoxypyrazine-2-carboxamide] | 397
3 | COc1cnc(C(=O)Nc2ccc(F)c([C@]3(C)C[C@@H](C(F)(F)F)OC(N)=N3)n2)c(Cl)c1 [Example 80, N-(6-((4S,6S)-2-amino-4-methyl-6-(trifluoromethyl)-5,6-dihydro-4H-1,3-oxazin-4-yl)-5-fluoropyridin-2-yl)-3-chloro-5-methoxypicolinamide] | 658
4 | NC1=N[C@](CF)(c2cc(Oc3ccccn3)ccc2F)C[C@@H](C(F)(F)F)O1 [Example 101, (4S,6S)-4-(2-fluoro-5-(pyridin-2-yloxy)phenyl)-4-(fluoromethyl)-6-(trifluoromethyl)-5,6-dihydro-4H-1,3-oxazin-2-amine] | > 400
5 | CC#Cc1cncc(-c2ccc(F)c([C@]3(CF)C[C@@H](C(F)(F)F)OC(N)=N3)c2)c1 [Example 104, (4S,6S)-4-(2-fluoro-5-(5-(prop-1-yn-1-yl)pyridin-3-yl)phenyl)-4-(fluoromethyl)-6-(trifluoromethyl)-5,6-dihydro-4H-1,3-oxazin-2-amine] | 220
6 | C#CCOC1CCN(C(=O)Nc2ccc(F)c([C@]3(C)C[C@@H](C(F)(F)F)OC(N)=N3)c2)CC1 [Example 120, N-(3-((4S,6S)-2-amino-4-methyl-6-(trifluoromethyl)-5,6-dihydro-4H-1,3-oxazin-4-yl)-4-fluorophenyl)-4-(prop-2-yn-1-yloxy)piperidine-1-carboxamide] | > 400
7 | C[C@@]1(c2cc(NC(=O)N3CCc4ccccc4C3)ccc2F)C[C@@H](C(F)(F)F)OC(N)=N1 [Example 121, N-(3-((4S,6S)-2-amino-4-methyl-6-(trifluoromethyl)-5,6-dihydro-4H-1,3-oxazin-4-yl)-4-fluorophenyl)-3,4-dihydroisoquinoline-2(1H)-carboxamide] | 3610
8 | C[C@@]1(c2cc(NC(=O)N3CCC(C(F)F)CC3)ccc2F)C[C@@H](C(F)(F)F)OC(N)=N1 [Example 122, N-(3-((4S,6S)-2-amino-4-methyl-6-(trifluoromethyl)-5,6-dihydro-4H-1,3-oxazin-4-yl)-4-fluorophenyl)-4-(difluoromethyl)piperidine-1-carboxamide] | > 14.8
9 | C[C@@]1(c2cc(NC(=O)N3CC=C(C#CC4CC4)CC3)ccc2F)C[C@@H](C(F)(F)F)OC(N)=N1 [Example 124, N-(3-((4S,6S)-2-amino-4-methyl-6-(trifluoromethyl)-5,6-dihydro-4H-1,3-oxazin-4-yl)-4-fluorophenyl)-4-(cyclopropylethynyl)-5,6-dihydropyridine-1(2H)-carboxamide] | 810
10 | NC1=N[C@](CF)(c2cc(NC(=O)c3ccc(Br)cn3)cc(F)c2F)C[C@@H](C(F)(F)F)O1 [Example 157, N-(3-((4S,6S)-2-amino-4-(fluoromethyl)-6-(trifluoromethyl)-5,6-dihydro-4H-1,3-oxazin-4-yl)-4,5-difluorophenyl)-5-bromopicolinamide] | > 400
11 | NC1=N[C@](CF)(c2cc(NC(=O)c3ccc(C#CC4CC4)cn3)cc(F)c2F)C[C@@H](C(F)(F)F)O1 [Example 158, N-(3-((4S,6S)-2-amino-4-(fluoromethyl)-6-(trifluoromethyl)-5,6-dihydro-4H-1,3-oxazin-4-yl)-4,5-difluorophenyl)-5-(cyclopropylethynyl)picolinamide] | > 400

Same assay, conditions: average IC50; read-out: CatD IC50

Row | SMILES | IC50 [µM]
12 | C[C@@]1(c2cc(NC(=O)c3ccc(C#N)cn3)cnc2F)C[C@@H](C(F)(F)F)OC(N)=N1 [Example 62, N-(5-((4S,6S)-2-amino-4-methyl-6-(trifluoromethyl)-5,6-dihydro-4H-1,3-oxazin-4-yl)-6-fluoropyridin-3-yl)-5-cyanopicolinamide] | > 400
13 | COc1cnc(C(=O)Nc2cnc(F)c([C@]3(C)C[C@@H](C(F)(F)F)OC(N)=N3)c2)c(Cl)c1 [Example 69, N-(5-((4S,6S)-2-amino-4-methyl-6-(trifluoromethyl)-5,6-dihydro-4H-1,3-oxazin-4-yl)-6-fluoropyridin-3-yl)-3-chloro-5-methoxypicolinamide] | > 400
14 | C[C@@]1(c2cc(Nc3ncc(F)c4cc(C#N)cnc34)cnc2F)C[C@@H](C(F)(F)F)OC(N)=N1 [Example 78, 8-((5-((4S,6S)-2-amino-4-methyl-6-(trifluoromethyl)-5,6-dihydro-4H-1,3-oxazin-4-yl)-6-fluoropyridin-3-yl)amino)-5-fluoro-1,7-naphthyridine-3-carbonitrile] | > 400
15 | C[C@@]1(c2nc(NC(=O)c3ncc(C(F)(F)F)cc3Cl)ccc2F)C[C@@H](C(F)(F)F)OC(N)=N1 [Example 81, N-(6-((4S,6S)-2-amino-4-methyl-6-(trifluoromethyl)-5,6-dihydro-4H-1,3-oxazin-4-yl)-5-fluoropyridin-2-yl)-3-chloro-5-(trifluoromethyl)-picolinamide] | > 400
16 | C[C@@]1(c2nc(NC(=O)c3ncc(C#N)cc3Cl)ccc2F)C[C@@H](C(F)(F)F)OC(N)=N1 [Example 82, N-(6-((4S,6S)-2-amino-4-methyl-6-(trifluoromethyl)-5,6-dihydro-4H-1,3-oxazin-4-yl)-5-fluoropyridin-2-yl)-3-chloro-5-cyanopicolinamide] | > 400
17 | Cc1cc(C#N)cnc1C(=O)Nc1ccc(F)c([C@]2(C)C[C@@H](C(F)(F)F)OC(N)=N2)n1 [Example 84, N-(6-((4S,6S)-2-amino-4-methyl-6-(trifluoromethyl)-5,6-dihydro-4H-1,3-oxazin-4-yl)-5-fluoropyridin-2-yl)-5-cyano-3-methylpicolinamide] | 900
18 | C[C@@]1(c2nc(NC(=O)c3ncc(Br)cc3Cl)ccc2F)C[C@@H](C(F)(F)F)OC(N)=N1 [Example 86, N-(6-((4S,6S)-2-amino-4-methyl-6-(trifluoromethyl)-5,6-dihydro-4H-1,3-oxazin-4-yl)-5-fluoropyridin-2-yl)-5-bromo-3-chloropicolinamide] | 636
19 | C[C@@]1(c2nc(Nc3ncc(F)c4cc(C#N)cnc34)ccc2F)C[C@@H](C(F)(F)F)OC(N)=N1 [Example 89, 8-((6-((4S,6S)-2-amino-4-methyl-6-(trifluoromethyl)-5,6-dihydro-4H-1,3-oxazin-4-yl)-5-fluoropyridin-2-yl)amino)-5-fluoro-1,7-naphthyridine-3-carbonitrile] | 229
20 | NC1=N[C@](CF)(c2cc(Oc3ncccc3F)ccc2F)C[C@@H](C(F)(F)F)O1 [Example 94] | 2220
21 | CNC(=O)c1ccnc(Oc2ccc(F)c([C@]3(CF)C[C@@H](C(F)(F)F)OC(N)=N3)c2)c1 [Example 96, 2-(3-((4S,6S)-2-amino-4-(fluoromethyl)-6-(trifluoromethyl)-5,6-dihydro-4H-1,3-oxazin-4-yl)-4-fluorophenoxy)-N-methylisonicotinamide] | > 400
22 | NC1=N[C@](CF)(c2cc(Oc3ncccc3Cl)ccc2F)C[C@@H](C(F)(F)F)O1 [Example 97, (4S,6S)-4-(5-((3-chloropyridin-2-yl)oxy)-2-fluorophenyl)-4-(fluoromethyl)-6-(trifluoromethyl)-5,6-dihydro-4H-1,3-oxazin-2-amine] | 1010
23 | NC1=N[C@](CF)(c2cc(Oc3cc(C(F)(F)F)ccn3)ccc2F)C[C@@H](C(F)(F)F)O1 [Example 99, (4S,6S)-4-(2-Fluoro-5-((4-(trifluoromethyl)pyridin-2-yl)oxy)phenyl)-4-(fluoromethyl)-6-(trifluoromethyl)-5,6-dihydro-4H-1,3-oxazin-2-amine] | > 400
24 | N#Cc1cncc(-c2ccc(F)c([C@]3(CF)C[C@@H](C(F)(F)F)OC(N)=N3)c2)c1 [Example 103, 5-(3-((4S,6S)-2-amino-4-(fluoromethyl)-6-(trifluoromethyl)-5,6-dihydro-4H-1,3-oxazin-4-yl)-4-fluorophenyl)nicotinonitrile] | 129
25 | COc1ccc(C(=O)Nc2cccc([C@]3(CF)C[C@@H](C(F)(F)F)OC(N)=N3)c2)nc1 [Example 145, N-(3-((4S,6S)-2-amino-4-(fluoromethyl)-6-(trifluoromethyl)-5,6-dihydro-4H-1,3-oxazin-4-yl)phenyl)-5-methoxypicolinamide] | 3520

Same assay, conditions: average; read-out: CatD IC50

Row | SMILES | IC50 [µM]
26 | C#CCOc1cnc(C(=O)Nc2cnc(F)c([C@]3(C)C[C@@H](C(F)(F)F)OC(N)=N3)c2)cn1 [Example 73, N-(5-((4S,6S)-2-amino-4-methyl-6-(trifluoromethyl)-5,6-dihydro-4H-1,3-oxazin-4-yl)-6-fluoropyridin-3-yl)-5-(prop-2-yn-1-yloxy)pyrazine-2-carboxamide] | 1690
27 | NC1=N[C@](CF)(c2cc(NC(=S)c3ccc(Cl)cn3)ccc2F)C[C@@H](C(F)(F)F)O1 [Example 91, N-(3-((4S,6S)-2-amino-4-(fluoromethyl)-6-(trifluoromethyl)-5,6-dihydro-4H-1,3-oxazin-4-yl)-4-fluorophenyl)-5-chloropyridine-2-carbothioamide] | 805
28 | NC1=N[C@](CF)(c2cc(C#Cc3ccc(OC(F)F)cn3)ccc2F)C[C@@H](C(F)(F)F)O1 [Example 127, (4S,6S)-4-(5-((5-(difluoromethoxy)pyridin-2-yl)ethynyl)-2-fluorophenyl)-4-(fluoromethyl)-6-(trifluoromethyl)-5,6-dihydro-4H-1,3-oxazin-2-amine] | 605
